From ChEMBL document CHEMBL5325449, “Influence of N-arylsulfonamido d-valine N-substituents on the selectivity and potency of matrix metalloproteinase inhibitors” (Bioorg Med Chem, 2023)
pIC50: −log10 of the molar value.

Experiments:
[1] = biological target: 72 kDa type IV collagenase (Homo sapiens, UniProt P08253); experiment: (§1) Inhibition of human recombinant MMP-2 (34 to 660 residues) expressed in CHO cells using (7-methoxycoumarin-4-y1)-acetyl-Pro-Leu-Gly-Leu-[3-(2,4-dinitropheny1)-L-2,3-diaminopropionyl]-Ala-Arg-NH2 as substrate preincubated with enzyme for 30 mins followed by substrate addition and measured after 10 mins by fluorescence based analysis; type: cell-based
[2] = biological target: Matrix metalloproteinase-9 (Homo sapiens, UniProt P14780, Q279R); experiment: as §1, with “MMP-9 (20” for “MMP-2 (34”, “707” for “660”, “residues) Gln279Arg mutant” for “residues)”; type: cell-based
Neutrophil collagenase = Neutrophil collagenase (Homo sapiens, UniProt P22894); experiment: as §1, with “MMP-8 (21” for “MMP-2 (34”, “467” for “660”, “NS0” for “CHO”; type: cell-based
Collagenase 3 = Collagenase 3 (Homo sapiens, UniProt P45452); experiment: as §1, with “MMP-13 (20” for “MMP-2 (34”, “471” for “660”, “NS0” for “CHO”
[3] = biological target: Macrophage metalloelastase (Homo sapiens, UniProt P39900, V97L); experiment: as §1, with “MMP-12 (17” for “MMP-2 (34”, “470” for “660”, “residues) Val97Leu mutant” for “residues)”, “NS0” for “CHO”; type: cell-based
Sequence of Macrophage metalloelastase (P39900 whole entry V97L): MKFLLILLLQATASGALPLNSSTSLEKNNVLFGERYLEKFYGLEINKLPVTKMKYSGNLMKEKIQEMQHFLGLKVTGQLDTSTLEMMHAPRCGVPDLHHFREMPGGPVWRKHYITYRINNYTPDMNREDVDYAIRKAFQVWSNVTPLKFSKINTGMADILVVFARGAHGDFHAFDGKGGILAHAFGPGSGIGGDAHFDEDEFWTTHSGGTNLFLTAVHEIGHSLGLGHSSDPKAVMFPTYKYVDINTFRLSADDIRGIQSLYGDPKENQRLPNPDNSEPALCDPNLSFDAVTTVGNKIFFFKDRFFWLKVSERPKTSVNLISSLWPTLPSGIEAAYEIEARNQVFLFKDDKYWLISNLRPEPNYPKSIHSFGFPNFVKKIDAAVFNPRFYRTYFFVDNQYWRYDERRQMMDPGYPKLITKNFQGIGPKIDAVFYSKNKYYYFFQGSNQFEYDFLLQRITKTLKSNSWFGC

Sequence of 72 kDa type IV collagenase (P08253 whole entry, the tested form may be a part): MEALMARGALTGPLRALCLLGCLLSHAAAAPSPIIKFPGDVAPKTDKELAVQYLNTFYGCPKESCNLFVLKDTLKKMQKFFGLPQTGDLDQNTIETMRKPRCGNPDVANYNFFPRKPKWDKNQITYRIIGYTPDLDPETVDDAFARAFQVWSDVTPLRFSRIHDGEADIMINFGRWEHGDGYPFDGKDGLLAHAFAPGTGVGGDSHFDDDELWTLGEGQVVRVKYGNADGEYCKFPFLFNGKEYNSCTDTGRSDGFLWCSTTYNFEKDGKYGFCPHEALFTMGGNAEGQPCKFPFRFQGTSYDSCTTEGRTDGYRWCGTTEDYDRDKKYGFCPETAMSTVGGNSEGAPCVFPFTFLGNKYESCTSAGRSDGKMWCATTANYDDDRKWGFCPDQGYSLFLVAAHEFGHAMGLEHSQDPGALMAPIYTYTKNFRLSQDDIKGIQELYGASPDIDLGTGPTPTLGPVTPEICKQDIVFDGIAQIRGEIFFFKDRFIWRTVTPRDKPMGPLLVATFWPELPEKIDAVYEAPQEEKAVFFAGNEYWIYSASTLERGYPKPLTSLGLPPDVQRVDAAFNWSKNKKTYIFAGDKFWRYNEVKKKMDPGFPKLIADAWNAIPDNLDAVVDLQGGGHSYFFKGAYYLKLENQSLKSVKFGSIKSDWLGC
Sequence of Neutrophil collagenase (P22894 whole entry): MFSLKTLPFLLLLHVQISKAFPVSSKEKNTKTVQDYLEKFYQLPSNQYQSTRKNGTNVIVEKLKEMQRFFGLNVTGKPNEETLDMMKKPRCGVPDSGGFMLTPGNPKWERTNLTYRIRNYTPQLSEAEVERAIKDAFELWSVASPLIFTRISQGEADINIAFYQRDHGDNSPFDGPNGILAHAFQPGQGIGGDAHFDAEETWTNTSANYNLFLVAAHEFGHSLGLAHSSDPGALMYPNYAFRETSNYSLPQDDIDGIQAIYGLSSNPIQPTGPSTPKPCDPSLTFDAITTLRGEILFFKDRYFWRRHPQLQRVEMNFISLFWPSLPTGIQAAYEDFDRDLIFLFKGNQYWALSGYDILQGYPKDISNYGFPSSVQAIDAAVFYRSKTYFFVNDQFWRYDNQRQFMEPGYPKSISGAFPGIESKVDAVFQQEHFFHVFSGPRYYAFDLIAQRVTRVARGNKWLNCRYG
Sequence of Matrix metalloproteinase-9 (P14780 107-707 Q279R limits assumed): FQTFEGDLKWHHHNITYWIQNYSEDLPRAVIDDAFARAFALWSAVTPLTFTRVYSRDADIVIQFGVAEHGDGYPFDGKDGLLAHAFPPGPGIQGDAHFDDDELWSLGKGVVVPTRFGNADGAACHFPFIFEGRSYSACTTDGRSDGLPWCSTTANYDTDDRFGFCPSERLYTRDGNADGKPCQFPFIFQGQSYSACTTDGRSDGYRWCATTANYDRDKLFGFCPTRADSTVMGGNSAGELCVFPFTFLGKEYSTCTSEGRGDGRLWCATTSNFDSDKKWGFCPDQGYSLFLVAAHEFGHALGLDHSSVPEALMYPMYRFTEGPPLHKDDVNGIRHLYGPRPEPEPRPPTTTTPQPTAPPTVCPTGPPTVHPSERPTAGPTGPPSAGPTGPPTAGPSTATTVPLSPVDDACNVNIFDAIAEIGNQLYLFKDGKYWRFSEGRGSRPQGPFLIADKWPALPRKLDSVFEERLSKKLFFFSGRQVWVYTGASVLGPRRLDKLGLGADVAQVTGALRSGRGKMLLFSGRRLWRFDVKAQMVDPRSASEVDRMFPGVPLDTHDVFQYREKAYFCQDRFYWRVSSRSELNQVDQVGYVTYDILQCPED

Structure (SMILES)	pIC50 [1]	pIC50 [2]	pIC50 (Neutrophil collagenase)	pIC50 (Collagenase 3)	pIC50 [3]
Cc1ccc(-c2noc(-c3ccc(S(=O)(=O)N(CCOCOCCCOCCN=[N+]=[N-])[C@@H](C(=O)O)C(C)C)cc3)n2)s1	8.10	7.44	7.08	7.03	6.74
Cc1ccc(-c2noc(-c3ccc(S(=O)(=O)N(CCCCF)[C@@H](C(=O)O)C(C)C)cc3)n2)s1	8.52	7.60	7.00	7.02	7.39
Cc1ccc(-c2noc(-c3ccc(S(=O)(=O)N[C@@H](C(=O)O)C(C)C)cc3)n2)s1	8.40	7.89	7.59	7.24	7.85
CC(C)[C@@H](NS(=O)(=O)c1ccc(-c2nc(-c3ccc(Cn4cc(CCCF)nn4)s3)no2)cc1)C(=O)O	7.80	6.99	7.66	7.92	7.89
CCCCCCCCCCCCCCCCN([C@@H](C(=O)O)C(C)C)S(=O)(=O)c1ccc(-c2nc(-c3ccc(C)s3)no2)cc1	< 5.00	< 5.00	< 5.00	< 5.00	< 5.00
Cc1ccc(-c2noc(-c3ccc(S(=O)(=O)N(CCCCCCCCCCCCN=[N+]=[N-])[C@@H](C(=O)O)C(C)C)cc3)n2)s1	7.24	6.03	6.03	5.70	5.40
CCCCCCCCN([C@@H](C(=O)O)C(C)C)S(=O)(=O)c1ccc(-c2nc(-c3ccc(C)s3)no2)cc1	6.00	5.40	–	< 5.00	5.44
CCCCCCN([C@@H](C(=O)O)C(C)C)S(=O)(=O)c1ccc(-c2nc(-c3ccc(C)s3)no2)cc1	7.10	6.48	< 5.00	6.48	6.28
Cc1ccc(-c2noc(-c3ccc(S(=O)(=O)N(CCCC(F)(F)F)[C@@H](C(=O)O)C(C)C)cc3)n2)s1	7.55	6.81	6.43	6.41	6.79
CC(C)[C@@H](NS(=O)(=O)c1ccc(-c2nc(-c3ccc(Cn4cc(CCCCCF)nn4)s3)no2)cc1)C(=O)O	7.66	6.00	7.05	7.44	7.54

Next, values leading:

pIC50 [1]	pIC50 [2]	pIC50 (Neutrophil collagenase)	pIC50 (Collagenase 3)	pIC50 [3]	Structure (SMILES)
9.23	7.47	7.05	6.34	7.44	Cc1ccc(-c2noc(-c3ccc(S(=O)(=O)N(CCF)[C@@H](C(=O)O)C(C)C)cc3)n2)s1
8.30	7.04	6.72	6.46	7.59	CCCN([C@@H](C(=O)O)C(C)C)S(=O)(=O)c1ccc(-c2nc(-c3ccc(C)s3)no2)cc1
7.49	7.06	6.33	6.98	6.79	CCCCCN([C@@H](C(=O)O)C(C)C)S(=O)(=O)c1ccc(-c2nc(-c3ccc(C)s3)no2)cc1
8.00	7.06	6.26	6.67	6.98	CCCCN([C@@H](C(=O)O)C(C)C)S(=O)(=O)c1ccc(-c2nc(-c3ccc(C)s3)no2)cc1
8.30	7.44	7.89	6.43	7.43	Cc1ccc(-c2noc(-c3ccc(S(=O)(=O)N(C)[C@@H](C(=O)O)C(C)C)cc3)n2)s1
9.15	7.48	6.83	6.60	7.24	CCN([C@@H](C(=O)O)C(C)C)S(=O)(=O)c1ccc(-c2nc(-c3ccc(C)s3)no2)cc1
8.30	7.02	6.24	6.01	6.95	Cc1ccc(-c2noc(-c3ccc(S(=O)(=O)N(Cc4ccccc4)[C@@H](C(=O)O)C(C)C)cc3)n2)s1
